The source of these data is US10975093B2, “Fused 1,4-diazepines as BET protein degraders” (THE REGENTS OF THE UNIVERSITY OF MICHIGAN, priority 2016, dated 2021).

What all share (assay type): cell-based
For one assay, the system named is MDA-MB-468. Nature of the assay: Cell growth inhibition, CellTiter-Glo Luminescent Cell Viability Assay, MDA-MB-468. The note with it: Homo sapiens, 96 h, MDA-MB-468 cells, 4 days incubation. The procedure:
Cell growth inhibitory activity of representative Compounds of the Disclosure was determined in various cell lines using CellTiter-Glo® Luminescent Cell Viability Assay. Cells were seeded in 384-well white opaque cell culture plates at a density of 2,000 cells/well with serially diluted compounds and incubated at 37° C. in an atmosphere of 95% air and 5% CO2 for 4 days. Cell viability was determined using the CellTiter-Glo® Luminescent Cell Viability Assay Kit (Promega, Madison, Wis.) according to the manufacture's instruction. Briefly, a volume of CellTiter-Glo® Reagent equal to the volume of cell culture medium was added to each well, and then the plates were incubated at room temperature for 10-20 minutes. The luminescent signal was measured using a Tecan Infinite M1000 multimode microplate reader (Tecan, Morrisville, N.C.). The half maximal inhibitory concentration (IC50) was calculated using the GraphPad Prism 5 software (GraphPad Software, La Jolla, Calif.).
(In ATP-based viability assays light output follows the ATP content of the culture.)

The subject of another assay is RS4; 11. Nature of the assay: Cell growth inhibition, CellTiter-Glo Luminescent Cell Viability Assay, RS4;11. The note with it: Homo sapiens, 96 h, RS4;11 cells, 4 days incubation. A digest of the protocol:
(§1)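 Cells were seeded at 2,000/well with serially diluted compound and grown 4 days at 37° C, 5% CO2. Viability was read by CellTiter-Glo luminescence after 10-20 min at room temperature, and IC50 was fitted from the dose-response.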

In a further assay the test system is MOLM-13. Nature of the assay: Cell growth inhibition, CellTiter-Glo Luminescent Cell Viability Assay, MOLM-13. The note with it: Homo sapiens, MOLM-13, 96 h, MOLM-13 cells, 4 days incubation. In outline: as §1
The test system of the next assay is MDA-MB-231. Nature of the assay: Cell growth inhibition, CellTiter-Glo Luminescent Cell Viability Assay, MDA-MB-231. Conditions: Homo sapiens, MDA-MB-231, 96 h, MDA-MB-231 cells, 4 days incubation. In outline:
as §1

As usually defined, the IC50 is the point on the concentration scale where inhibition reaches its midpoint. Higher therefore signals lower potency. For the molecule `Cc1c(C#Cc2cnn(CCCC#Cc3ccc(F)c4c3CN(C3CCC(=O)NC3=O)C4=O)c2)sc2c1C(c1ccc(Cl)cc1)=NCc1nnc(C)n1-2` (stereo not shown) [compound 142, 3-(4-(5-(4-((4-(4-chlorophenyl)-3,9-dimethyl-6H-thieno[3,2-f][1,2,4]triazolo[4,3-a][1,4]diazepin-2-yl)ethynyl)-1H-pyrazol-1-yl)pent-1-yn-1-yl)-7-fluoro-1-oxoisoindolin-2-yl)piperidine-2,6-dione], the IC50 with MDA-MB-468 was determined as 32.9 nM; with RS4; 11 it was 1 nM; in the assay on MOLM-13 it was 6.4 nM; in the assay on MDA-MB-231 it was 30.4 nM.
